Assay results taken from the supplement of paper PMC10307832.

Assays:
Test in all cases: relative viability (nuclei count vs DMSO), 5 days (fraction); higher = more cells survive
[1] = compound: CC(C)C[C@@H](C(=O)N[C@H](C(=O)OC1CCCC1)c1ccccc1)[C@H](O)C(=O)NO [Tosedostat] + O=C(CCCCCCC(=O)Nc1ccccc1)NO [Vorinostat] (partner 1 µM)
Summary of the method: (§1)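 Each reported value is a median over duplicate plates. It expresses relative viability: treated-well nuclei count divided by vehicle-well nuclei count. Lung cancer cell lines in 1536-well plates were dosed by pin tool a day after seeding, alone with one drug or with a fixed anchor-drug dose plus five library-drug doses (not always all listed) in √10 steps, and nuclei were counted after 5 days.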

[2] = compound: CC1=NN=C(O1)C2=NN=C(C=C2)N3CCC(CC3)OC4=C(C=CC(=C4)F)Cl + N=C(N)NC(=N)NCCc1ccccc1 [Phenformin] (partner 250 µM)
Summary of the method: as §1

[3] = compound: CC(C)C[C@@H](C(=O)N[C@H](C(=O)OC1CCCC1)c1ccccc1)[C@H](O)C(=O)NO [Tosedostat] + CC(C)C[C@H](NC(=O)[C@H](Cc1ccccc1)NC(=O)c1cnccn1)B(O)O [Bortezomib] (partner 0.002 µM)
Summary of the method: as §1

[4] = compound: CC1=NN=C(O1)C2=NN=C(C=C2)N3CCC(CC3)OC4=C(C=CC(=C4)F)Cl + NC(=O)Nc1cc(-c2cccc(F)c2)sc1C(=O)N[C@H]1CCCNC1 [AZD7762] (partner 0.2 µM)
Summary of the method: as §1

Cell Line	relative viability ([1]; first compound 0.02 µM)	relative viability ([1]; first compound 0.06325 µM)	relative viability ([1]; first compound 0.2 µM)	relative viability ([1]; first compound 0.6325 µM)	relative viability ([1]; first compound 2 µM)	relative viability ([2]; first compound 0.253 µM)	relative viability ([2]; first compound 0.8 µM)	relative viability ([2]; first compound 2.53 µM)	relative viability ([2]; first compound 8 µM)	relative viability ([3]; first compound 0.02 µM)	relative viability ([3]; first compound 0.06325 µM)	relative viability ([3]; first compound 0.2 µM)	relative viability ([3]; first compound 0.6325 µM)	relative viability ([3]; first compound 2 µM)	relative viability ([4]; first compound 0.8 µM)	relative viability ([4]; first compound 2.53 µM)	relative viability ([4]; first compound 8 µM)	relative viability ([4]; first compound 0.253 µM)
LOU-NH91	0.983	0.932	0.898	0.764	0.693	0.64	0.598	0.69	0.679	0.5	0.545	0.484	0.564	0.44	0.715	0.816	0.717	–
BEN	0.645	0.602	0.678	0.761	0.888	0.25	0.265	0.267	0.301	0.973	1.08	0.827	0.908	0.728	0.752	0.878	0.729	0.681
NCI-H1755	0.912	0.795	0.732	0.768	0.637	0.567	0.565	0.523	0.56	0.963	0.896	0.928	0.887	0.845	0.428	0.465	0.418	0.442
LC-2-ad	0.835	0.702	0.7	0.688	0.512	0.496	0.489	0.51	0.472	1.15	0.971	1.01	0.906	0.791	0.391	0.398	0.379	0.394
NCI-H1975	0.741	0.742	0.678	0.611	0.622	–	0.33	0.421	0.387	0.427	0.454	0.36	0.347	0.304	–	0.717	0.719	–
ChaGo-K-1	0.803	0.754	0.771	0.717	0.62	0.471	0.373	0.545	0.381	1.15	1.03	0.938	0.962	0.78	0.529	0.705	0.594	0.588
NCI-H2085	–	0.831	0.748	0.897	0.74	0.676	–	0.629	0.565	1.22	1.14	1.07	1.03	0.977	0.667	0.797	0.607	0.636
NCI-H2087	0.718	0.667	0.66	0.735	0.667	0.425	0.267	0.387	0.341	0.902	0.795	0.802	0.703	0.688	0.906	0.953	0.704	0.903
NCI-H322M	0.855	0.958	0.887	0.995	0.802	0.759	0.742	0.846	0.731	1.36	0.853	1.2	1.1	1.08	0.563	0.581	0.543	0.51
HCC-366	0.426	0.305	0.394	0.386	0.352	0.286	0.285	0.309	0.288	1.05	1.03	1.03	1.07	1.04	0.144	0.225	0.173	0.118
EMC-BAC-2	0.605	0.713	0.471	0.408	0.323	0.594	0.479	0.495	0.517	1.13	1	1.07	0.944	0.985	0.929	1.1	1.03	1.07
NCI-H460	0.83	0.708	0.676	0.699	0.714	0.298	0.309	0.291	0.258	1.14	0.898	1.09	0.926	1.32	0.189	0.26	0.23	0.215
EPLC-272H	0.509	0.489	0.347	0.401	0.269	0.315	0.279	0.309	0.294	1.14	0.826	0.738	0.67	0.574	0.369	0.268	0.197	0.236
NCI-H838	0.772	0.732	0.808	0.833	0.87	0.588	0.434	0.515	0.504	0.82	0.852	0.646	0.918	1.1	0.778	0.918	0.787	0.74
NCI-H647	0.842	0.502	0.566	0.503	0.686	0.441	0.446	0.408	0.2	1.03	0.947	0.788	1.07	0.829	0.294	0.472	0.248	0.462
NCI-H1437	1.04	0.754	0.976	1.12	0.958	0.209	0.236	0.288	0.252	0.465	0.512	0.488	0.524	0.324	0.851	0.93	0.848	0.726
NCI-H3122	1.02	1.06	1.46	0.879	0.954	0.324	0.282	0.253	0.275	1.02	1.03	1.1	1.05	1.02	0.469	0.503	0.485	0.444

Cell Line	relative viability ([1]; first compound 0.02 µM)	relative viability ([1]; first compound 0.06325 µM)	relative viability ([1]; first compound 0.2 µM)	relative viability ([1]; first compound 0.6325 µM)	relative viability ([1]; first compound 2 µM)	relative viability ([2]; first compound 0.253 µM)	relative viability ([2]; first compound 0.8 µM)	relative viability ([2]; first compound 2.53 µM)	relative viability ([2]; first compound 8 µM)	relative viability ([3]; first compound 0.02 µM)	relative viability ([3]; first compound 0.06325 µM)	relative viability ([3]; first compound 0.2 µM)	relative viability ([3]; first compound 0.6325 µM)	relative viability ([3]; first compound 2 µM)	relative viability ([4]; first compound 0.8 µM)	relative viability ([4]; first compound 2.53 µM)	relative viability ([4]; first compound 8 µM)	relative viability ([4]; first compound 0.253 µM)
PC-14	0.819	0.653	0.712	0.58	0.458	0.656	–	0.463	0.567	0.79	0.814	0.896	0.845	0.944	0.271	0.374	0.253	0.28
NCI-H23	0.646	0.52	0.707	0.502	0.51	0.829	–	0.729	0.709	1.11	0.959	0.846	0.687	0.463	0.192	0.288	0.206	0.191
NCI-H596	0.731	0.706	0.816	0.692	0.616	0.648	0.611	0.697	0.525	1.32	1.19	1	1.12	1.04	0.853	0.97	0.946	0.975
NCI-H650	0.752	0.528	0.416	0.334	0.308	0.478	0.444	0.43	0.414	0.958	0.894	0.562	0.685	0.504	0.642	0.985	0.882	0.943
LU99A	0.573	0.583	0.445	0.388	0.381	0.885	0.822	0.821	0.71	1.11	1.04	1.08	0.94	0.761	0.341	0.57	0.385	0.349
PC-3 [JPC-3]	0.861	0.949	0.656	0.606	0.561	0.433	0.406	0.426	0.412	0.819	0.771	0.823	0.776	0.552	0.602	0.728	0.914	0.702
RERF-LC-KJ	0.692	0.676	0.604	0.681	0.619	0.389	0.434	0.466	0.392	1.13	1.3	1.05	0.923	0.892	0.569	0.564	0.554	0.53
NCI-H1915	0.51	0.457	0.516	0.503	0.527	0.377	0.287	0.332	0.243	1.03	0.942	1.01	0.956	0.946	0.276	0.464	0.381	0.501
H3255	0.759	0.752	0.799	0.608	0.783	0.372	0.316	0.354	0.398	0.883	0.927	0.86	0.621	0.648	0.663	0.628	0.639	0.633
201T	1.01	0.997	0.99	0.962	0.981	0.38	0.436	0.46	0.443	1.1	1.08	1.14	1.14	1.21	0.481	0.531	0.505	0.447
NCI-H2405	1.06	1.12	0.955	0.841	0.798	0.406	0.383	0.37	0.328	1.04	0.949	1	0.937	0.883	0.684	0.627	0.654	0.684
HOP-62	0.819	0.516	0.612	0.561	0.372	0.592	0.352	0.411	0.349	0.719	0.931	0.805	0.526	0.498	0.22	0.452	0.228	0.556
CAL-12T	1.05	0.678	0.656	0.572	0.685	0.585	0.519	0.488	0.416	0.987	0.897	0.966	0.85	0.549	0.586	0.606	0.479	0.637
NCI-H727	1.18	1.26	1.1	0.886	0.683	0.613	–	0.496	0.482	0.884	0.771	0.804	0.613	0.613	0.597	0.623	0.555	0.823
NCI-H1993	0.732	0.728	0.588	0.608	0.548	0.553	0.481	0.651	0.509	1.02	1.22	0.852	0.872	0.642	0.69	0.769	0.652	0.713
NCI-H2126	0.635	0.822	0.81	0.701	0.79	0.486	0.507	0.53	0.528	1.13	1.14	1.14	1.08	1.03	0.854	0.929	0.849	0.893
